From article PMC7011974, “Benzimidazole derivatives endowed with potent antileishmanial activity” (Journal of Enzyme Inhibition and Medicinal Chemistry, 2017)
Read-outs that look alike come from different tables or passages of the source.

Experiments:
[1] = tested on: L. tropica promastigotes; test: Antileishmanial activity on L. tropica promastigotes (MTT); type: cell-based, Leishmania tropica; settings: for IC50: Leishmania tropica, 72 h, read-out: IC50 (µM) L. tropica; for Antileishmanial activity in words: promastigotes of L. tropica and/or L. infantum
[2] = tested on: L. infantum promastigotes; test: Antileishmanial activity on L. infantum promastigotes (MTT); type: cell-based, Leishmania infantum; settings: for IC50: Leishmania infantum, 72 h, read-out: IC50 (µM) L. infantum
[3] = Cytotoxicity on Vero-76 cells (crystal violet); settings: monkey, Vero-76 cells
[4] = tested on: monkey kidney (Vero76) cells; test: Cytotoxicity on Vero-76 cells (crystal violet)
[5] = tested on: human microvascular endothelial cell line (HMEC-1); test: Cytotoxicity on HMEC-1 cells (MTT); type: cell-based
[6] = tested on: promastigote stage of L. infantum; settings: read-out: IC50 of miltefosine versus promastigote stage of L. infantum, literature, cited from earlier work
[7] = in vitro; settings: monkey
[8] = tested on: serum cholesterol concentration; design: method as in ref 21 = [21]; 21 (a) Sparatore F , Boido V , Fanelli F. Dialkylaminoalkylbenzimi-dazoles of pharmacological interest . Farmaco Sci 1968; 23 : 344 – 59 . (b) Paglietti G , Sparatore F. Dialkylaminoalkyl-benzimidazo; settings: hypercholesterolemic mice, 50 mg/kg p.os; cited from earlier work
[9] = promastigotes, MTT, starred values mean of two experiments
[10] = fold potency versus miltefosine
[11] = percent of amphotericin B potency, calculated for each experiment

Row | SMILES | IC50 [1, 9] | Ratio IC50 miltef./IC50 compd., L. tropica [1, 10] | IC50 amph. B ×100/IC50 compd., L. tropica [1, 11] | IC50 ([2]; promastigotes, MTT) | Ratio IC50 miltef./IC50 compd., L. infantum [2, 10] | IC50 amph. B ×100/IC50 compd., L. infantum [2, 11] | IC50 [3] | SI L. tropica (IC50 Vero76/IC50 L. tropica) ([4]; selectivity index, Vero76) | other results
1 | FC(F)(F)c1ccc2c(c1)nc(-c1ccccc1)n2C[C@@H]1CCCN2CCCC[C@H]12 [Compound 35] | 7.31 ± 2.75 µM | 5.9 | 2.42 | 12.1 ± 1.82 µM | 2.6 | 1.73 | 90 µM | 12.3 | SI L. infantum (IC50 Vero76/IC50 L. infantum) ([4]; selectivity index, Vero76): 7.44
2 | CCCCCCCCCCCCCCCCOP(=O)([O-])OCC[N+](C)(C)C [Miltefosine, miltefosine, reference compound] | 43 µM | 1.0 | 0.26 | 31.3 ± 10.4 µM | 1.0 | 0.27 |  |  | IC50 ([5]; Homo sapiens, cytotoxicity, HMEC-1 cells, MTT): 99.8 µM; SI L. infantum (IC50 HMEC-1/IC50 L. infantum) ([5]; selectivity index, HMEC-1): 3.2; IC50 ([6]; ref 6c): 16.7 µM; IC50 ([6]; ref 11a): 15 µM; IC50 ([6]; ref 13b): 19.6 µM
3 | CCN(CC)CCCn1c(-c2ccc(OC)cc2)nc2cc(C(F)(F)F)ccc21 [Compound 27] | 21.1 ± 5.84 µM | 2.1 | 0.84 | 32.7 ± 3.92 µM | 1.0 | 0.64 | > 100 µM | >4.74 | Antileishmanial activity in words [1]: moderately active; SI L. infantum (IC50 Vero76/IC50 L. infantum) ([4]; selectivity index, Vero76): >3
4 | O=[N+]([O-])c1ccc2c(c1)nc(Cc1ccccc1)n2C[C@@H]1CCCN2CCCC[C@H]12 [Compound 32] |  |  |  |  |  |  |  |  | IC50 amph. B ×100/IC50 compd., L. tropica [1]: 1.43; Ratio IC50 miltef./IC50 compd., L. tropica [1]: 6.0; IC50 [1]: 7.22 ± 3.13 µM; IC50 amph. B ×100/IC50 compd., L. infantum [2]: 1.24; Ratio IC50 miltef./IC50 compd., L. infantum [2]: 3.3; IC50 [2]: 9.55 ± 3.11 µM; IC50 [7]: 50 µM; SI L. infantum (IC50 Vero76/IC50 L. infantum) [4]: 5.23; SI L. tropica (IC50 Vero76/IC50 L. tropica) [4]: 6.93
5 | CCN(CC)CCCn1c(Cc2ccc(Cl)cc2)nc2cc(C(F)(F)F)ccc21 [2-(4-chlorobenzyl)-1-(3-diethylaminopropyl)-5-trifluoromethylbenzimidazole] |  |  |  |  |  |  |  |  | Reduction of serum cholesterol concentration [8]: > 15%
6 | COc1ccc(Cc2nc3cc([N+](=O)[O-])ccc3n2C[C@@H]2CCCN3CCCC[C@H]23)cc1 [Compound 34] |  |  |  |  |  |  |  |  | IC50 amph. B ×100/IC50 compd., L. tropica [1]: 2.99; Ratio IC50 miltef./IC50 compd., L. tropica [1]: 12.6; IC50 [1]: 3.44 ± 1.43 µM; IC50 amph. B ×100/IC50 compd., L. infantum [2]: 1.77; Ratio IC50 miltef./IC50 compd., L. infantum [2]: 4.7; IC50 [2]: 6.68 ± 1.74 µM; IC50 [7]: 49 µM; SI L. infantum (IC50 Vero76/IC50 L. infantum) [4]: 7.33; SI L. tropica (IC50 Vero76/IC50 L. tropica) [4]: 14.24
7 | COc1ccc(-c2nc3cc(C(F)(F)F)ccc3n2CCN(C)C)cc1 [Compound 26] | 29.6 ± 0.3 µM | 1.5 | 0.60 | > 55 µM |  |  | > 100 µM | >3.37 | Antileishmanial activity in words [1]: moderately active
